In publication PMC5775429, “LY2087101 and dFBr share transmembrane binding sites in the (α4)3(β2)2 Nicotinic Acetylcholine Receptor” (Scientific Reports, 2018):
Like-named read-outs stand apart in the source and are kept apart here. Marks after values point to notes of the source that are not given here.

Legend:
(α4E92I)3(β2)2 nAChR = (α4E92I)3(β2)2 nAChR (Homo sapiens, UniProt P43681, E92I); experiment: Two-electrode voltage-clamp of ACh-induced currents in Xenopus oocytes; assay type: cell-based; conditions: 10 µM ACh + 1 µM LY2087101 vs 10 µM ACh alone
(α4E92I)3(β2)2 nAChR, sequence (P43681 29-627 E92I limits assumed): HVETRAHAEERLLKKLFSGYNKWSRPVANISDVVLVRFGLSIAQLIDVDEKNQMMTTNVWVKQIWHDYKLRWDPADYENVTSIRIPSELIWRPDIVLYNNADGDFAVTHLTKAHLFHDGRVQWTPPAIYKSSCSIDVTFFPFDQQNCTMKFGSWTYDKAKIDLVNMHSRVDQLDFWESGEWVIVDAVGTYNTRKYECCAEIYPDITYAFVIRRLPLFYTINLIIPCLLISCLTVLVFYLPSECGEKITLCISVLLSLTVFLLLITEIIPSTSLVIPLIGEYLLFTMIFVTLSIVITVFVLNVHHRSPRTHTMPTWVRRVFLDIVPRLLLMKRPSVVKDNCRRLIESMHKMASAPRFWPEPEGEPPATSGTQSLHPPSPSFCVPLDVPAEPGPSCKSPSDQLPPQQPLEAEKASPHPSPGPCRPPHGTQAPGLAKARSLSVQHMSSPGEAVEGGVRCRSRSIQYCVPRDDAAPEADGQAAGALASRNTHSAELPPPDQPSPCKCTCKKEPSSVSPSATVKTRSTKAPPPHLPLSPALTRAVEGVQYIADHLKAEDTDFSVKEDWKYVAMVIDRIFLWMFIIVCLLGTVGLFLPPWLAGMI
(α4E92I)3(β2)2 nAChR, sequence (P17787 26-502 partner): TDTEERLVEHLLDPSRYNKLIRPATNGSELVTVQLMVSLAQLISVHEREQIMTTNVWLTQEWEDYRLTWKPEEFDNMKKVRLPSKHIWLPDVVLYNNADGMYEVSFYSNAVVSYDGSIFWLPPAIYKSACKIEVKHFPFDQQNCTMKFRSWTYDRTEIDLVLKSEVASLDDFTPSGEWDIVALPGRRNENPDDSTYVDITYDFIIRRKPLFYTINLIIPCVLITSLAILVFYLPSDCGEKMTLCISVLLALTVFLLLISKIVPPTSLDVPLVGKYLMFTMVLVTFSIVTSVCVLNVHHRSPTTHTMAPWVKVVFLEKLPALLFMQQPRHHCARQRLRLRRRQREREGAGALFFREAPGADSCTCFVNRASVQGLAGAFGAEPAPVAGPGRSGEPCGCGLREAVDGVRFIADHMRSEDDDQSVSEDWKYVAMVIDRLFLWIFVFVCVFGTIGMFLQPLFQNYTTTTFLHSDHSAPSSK
Description: (§1) For amino acid substitutions within the α4 nAChR subunit, point mutations were introduced into pSP64ployA plasmid with cDNA encoding for human α4 nAChR subunit with mutagenic primer pairs using the Quick Change II Site-Directed Mutagenesis Kit (Agilent Technologies) then confirmed by DNA sequencing (GENEWIZ, LLC, South Plainfield, NJ). cRNA transcripts suitable for oocyte expression were prepared in vitro from linearized plasmids [α3 (BamH1), α4 (AseI), β2 (PvuII), β4 (XhoI)] using mMESSAGE mMACHINE high yield capped RNA transcription kits (Ambion) and purified on NucAway Spin column (Invitrogen). cRNA concentration was determined by spectroscopy (Concentration (ug/ul) = Abs260 * 40), aliquoted and stored at −80 °C until used.
(§2) Ovarian lobules were surgically harvested from oocytes-positive female Xenopus laevis (NASCO, Fort Atkinson, WI) according to an animal use protocol approved by the Texas A&M Health Sciences Center Institutional Animals Care and Use Committee. The Texas A&M Health Sciences Center Research Facility is registered as an animal research facility with the United States Department of Agriculture and is fully accredited by the American Association for Accreditation of Laboratory Animal Care (AAALAC). For oocytes defolliculation, ovarian lobes were treated with 3 mg/ml collagenase type 2 (Worthington Biomedical, Lakewood, NJ) in Ca + 2-free buffer (85 mM NaCl, 2.5 mM KCl, 1 mM MgCl2, 5 mM HEPES, pH 7.6). Collagenase treatment was allowed to proceed for 3 hours at room temperature with gentle shaking then oocytes were washed several times with buffer to remove collagenase then with ND96-gentamicine buffer. Healthy Stage V and VI oocytes were visually selected and maintained at 18 °C in modified ND96-gentamicine buffer (96 mM NaCl, 2 mM KCl, 1.8 mM CaCl2, 1 mM MgCl2, 5 mM HEPES, 50 µg/ml gentamicin, pH 7.6). Oocytes were injected with 50–100 ng of the desired nAChR subunits cRNA mix at ratios of 8α:1β or 1α:8β to express nAChRs with subunit stoichiometries of 3α:2β (low agonist sensitivity) or 2α:3β (high agonist sensitivity), respectively.
(§3) Two-electrode voltage clamp recording of ACh-induced responses of Xenopus oocytes were performed 24–72 h following injection of nAChR subunit cRNA mix to ensure adequate nAChRs expression. Xenopus oocytes were placed in a custom-made recording chamber that is connected to eight channels automated perfusion system (Warner Instruments) and voltage-clamped at −50 mV using Oocyte Clamp OC-725B (Warner Instruments). Oocytes were continuously perfused with recording buffer (100 mM NaCl, 2 mM KCl, 1 mM CaCl2, 0.8 mM MgCl2, 1 mM EGTA, 10 mM Hepes, pH 7.5) except during periods of drug applications. […] Currents were digitized using Digidata 1550 A (Axon Instruments) and peak currents were quantified using pCLAMP 10 (Axon Instruments) then normalized and analyzed using Excels 2010 (Microsoft corporation) and SigmaPlot 11.0 (Systat Software).

(α4G67E)3(β2)2 nAChR = (α4G67E)3(β2)2 nAChR (Homo sapiens, UniProt P43681, G67E); experiment: as above; assay type: cell-based; conditions: 10 µM ACh + 1 µM LY2087101 vs 10 µM ACh alone
(α4G67E)3(β2)2 nAChR, sequence (P43681 29-627 G67E limits assumed): as the sequence (P43681 29-627 E92I limits assumed) above, with G39E, I64E counted along it
(α4G67E)3(β2)2 nAChR, sequence (P17787 26-502 partner): as the sequence (P17787 26-502 partner) above
Description: as §1, §2, §3

(α4L63I)3(β2)2 nAChR = (α4L63I)3(β2)2 nAChR (Homo sapiens, UniProt P43681, L63I); experiment: as above; assay type: cell-based; conditions: 10 µM ACh + 1 µM LY2087101 vs 10 µM ACh alone
(α4L63I)3(β2)2 nAChR, sequence (P43681 29-627 L63I limits assumed): as the sequence (P43681 29-627 E92I limits assumed) above, with L35I, I64E counted along it
(α4L63I)3(β2)2 nAChR, sequence (P17787 26-502 partner): as the sequence (P17787 26-502 partner) above
Description: as §1, §2, §3

(α4R148E)3(β2)2 nAChR [1] = target: T1, (α4R148E)3(β2)2 nAChR (Homo sapiens, UniProt P43681, R148E); experiment: as above; assay type: cell-based; conditions: 10 µM ACh + 1 µM LY2087101 vs 10 µM ACh alone
T1 sequence (P43681 29-627 R148E limits assumed): as the sequence (P43681 29-627 E92I limits assumed) above, with I64E, R120E counted along it
T1 sequence (P17787 26-502 partner): as the sequence (P17787 26-502 partner) above
Description: as §1, §2, §3

(α4H94N)3(β2)2 nAChR [2] = target: T2, (α4H94N)3(β2)2 nAChR (Homo sapiens, UniProt P43681, H94N); experiment: as above; assay type: cell-based; conditions: 10 µM ACh + 1 µM LY2087101 vs 10 µM ACh alone
T2 sequence (P43681 29-627 H94N limits assumed): as the sequence (P43681 29-627 E92I limits assumed) above, with I64E, H66N counted along it
T2 sequence (P17787 26-502 partner): as the sequence (P17787 26-502 partner) above
Description: as §1, §2, §3

(α4H142L)3(β2)2 nAChR [3] = target: T3, (α4H142L)3(β2)2 nAChR (Homo sapiens, UniProt P43681, H142L); experiment: as above; assay type: cell-based; conditions: 10 µM ACh + 1 µM LY2087101 vs 10 µM ACh alone
T3 sequence (P43681 29-627 H142L limits assumed): as the sequence (P43681 29-627 E92I limits assumed) above, with I64E, H114L counted along it
T3 sequence (P17787 26-502 partner): as the sequence (P17787 26-502 partner) above
Description: as §1, §2, §3

(α4Q150T)3(β2)2 nAChR = (α4Q150T)3(β2)2 nAChR (Homo sapiens, UniProt P43681, Q150T); experiment: as above; assay type: cell-based; conditions: 10 µM ACh + 1 µM LY2087101 vs 10 µM ACh alone
(α4Q150T)3(β2)2 nAChR, sequence (P43681 29-627 Q150T limits assumed): as the sequence (P43681 29-627 E92I limits assumed) above, with I64E, Q122T counted along it
(α4Q150T)3(β2)2 nAChR, sequence (P17787 26-502 partner): as the sequence (P17787 26-502 partner) above
Description: as §1, §2, §3

(α4R65H)3(β2)2 nAChR [4] = target: T4, (α4R65H)3(β2)2 nAChR (Homo sapiens, UniProt P43681, R65H); experiment: as above; assay type: cell-based; conditions: 10 µM ACh + 1 µM LY2087101 vs 10 µM ACh alone
T4 sequence (P43681 29-627 R65H limits assumed): as the sequence (P43681 29-627 E92I limits assumed) above, with R37H, I64E counted along it
T4 sequence (P17787 26-502 partner): as the sequence (P17787 26-502 partner) above
Description: as §1, §2, §3

(α4T152I)3(β2)2 nAChR = (α4T152I)3(β2)2 nAChR (Homo sapiens, UniProt P43681, T152I); experiment: as above; assay type: cell-based; conditions: 10 µM ACh + 1 µM LY2087101 vs 10 µM ACh alone
(α4T152I)3(β2)2 nAChR, sequence (P43681 29-627 T152I limits assumed): as the sequence (P43681 29-627 E92I limits assumed) above, with I64E, T124I counted along it
(α4T152I)3(β2)2 nAChR, sequence (P17787 26-502 partner): as the sequence (P17787 26-502 partner) above
Description: as §1, §2, §3

[5] = test system: non-induced compulsive-like mouse model; design: method as in PMID 23712602, PMID 28446611, PMID 28809075, PMID 28105008; conditions: cited from earlier work
(α4H94N)3(β2)2 nAChR [6] = target: T2, (α4H94N)3(β2)2 nAChR; design: method as in PMID 28446611; conditions: 10 µM ACh + 1 µM dFBr vs 10 µM ACh alone; data reported previously ref 29; cited from earlier work
(α4H142L)3(β2)2 nAChR [7] = target: T3, (α4H142L)3(β2)2 nAChR; design: method as in PMID 28446611; conditions: 10 µM ACh + 1 µM dFBr vs 10 µM ACh alone; data reported previously ref 29; cited from earlier work
(α4R65H)3(β2)2 nAChR [8] = target: T4, (α4R65H)3(β2)2 nAChR; design: method as in PMID 28446611; conditions: 10 µM ACh + 1 µM dFBr vs 10 µM ACh alone; data reported previously ref 29; cited from earlier work
α3β2 nAChR = target: T5, α3β2 nAChR (Homo sapiens, UniProt P17787+P32297); experiment: Two-electrode voltage-clamp of ACh-induced currents in Xenopus oocytes; assay type: cell-based; conditions: 1 μM PAM
T5 construct: expressed in transfected cells; host or cells: Xenopus laevis oocytes injected with cRNA
T5 sequence (P32297 32-505): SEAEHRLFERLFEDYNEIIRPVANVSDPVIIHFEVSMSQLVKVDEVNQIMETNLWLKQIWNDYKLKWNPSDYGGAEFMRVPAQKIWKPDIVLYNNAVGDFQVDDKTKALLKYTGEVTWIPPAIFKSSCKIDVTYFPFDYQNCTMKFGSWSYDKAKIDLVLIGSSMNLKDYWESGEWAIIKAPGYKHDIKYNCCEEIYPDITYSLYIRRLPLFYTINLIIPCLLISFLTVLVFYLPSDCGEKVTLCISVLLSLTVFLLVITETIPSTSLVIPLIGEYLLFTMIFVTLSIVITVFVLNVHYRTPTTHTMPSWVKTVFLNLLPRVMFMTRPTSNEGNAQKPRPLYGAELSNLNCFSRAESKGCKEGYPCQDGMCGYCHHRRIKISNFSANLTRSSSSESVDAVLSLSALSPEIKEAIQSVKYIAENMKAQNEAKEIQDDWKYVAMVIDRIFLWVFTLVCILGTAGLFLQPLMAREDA
T5 sequence (P17787 26-502): as the sequence (P17787 26-502 partner) above

(α4R148E)3(β2)2 nAChR [9] = target: T1, (α4R148E)3(β2)2 nAChR; design: method as in PMID 28446611; conditions: 10 µM ACh + 1 µM dFBr vs 10 µM ACh alone; data reported previously ref 29; cited from earlier work

SMILES	R, potentiation ratio (PR) ((α4E92I)3(β2)2 nAChR)	R, potentiation ratio (PR) ((α4G67E)3(β2)2 nAChR)	R, potentiation ratio (PR) ((α4L63I)3(β2)2 nAChR)	R, potentiation ratio (PR) ((α4R148E)3(β2)2 nAChR [1])	R, potentiation ratio (PR) ((α4H94N)3(β2)2 nAChR [2])	R, potentiation ratio (PR) ((α4H142L)3(β2)2 nAChR [3])	R, potentiation ratio (PR) ((α4Q150T)3(β2)2 nAChR)	R, potentiation ratio (PR) ((α4R65H)3(β2)2 nAChR [4])	R, potentiation ratio (PR) ((α4T152I)3(β2)2 nAChR)	compulsive-like behavior [5]	R, potentiation ratio (PR) ((α4H94N)3(β2)2 nAChR [6])	R, potentiation ratio (PR) ((α4H142L)3(β2)2 nAChR [7])	R, potentiation ratio (PR) ((α4R65H)3(β2)2 nAChR [8])	potentiation of ACh responses (α3β2 nAChR)	R, potentiation ratio (PR) ((α4R148E)3(β2)2 nAChR [9])
Cc1nc(Nc2ccc(F)cc2)sc1C(=O)c1ccsc1 [LY2087101, [2-[(4-Fluorophenyl)amino]-4-methyl-5-thiazolyl]-3-thienylmethanone]	10.9 ± 2.6	5.2 ± 0.7	4.3 ± 0.4	11.1 ± 1.2	5.2 ± 1.0	8.7 ± 0.5	4.3 ± 0.2	7.4 ± 1.3	4.3 ± 1.3	–	–	–	–	–	–
C=CC(C)(C)c1[nH]c2cc(Br)ccc2c1CCNC [dFBr]	–	–	–	–	–	–	–	–	–	attenuate compulsive-like behavior	5.8 ± 0.5^a	8.1 ± 0.6^a	5.3 ± 1.8^a	did not potentiate	10.3 ± 2.4^a
